Results: US4383113A, “Agricultural sulfonamides” (E. I. Du Pont de Nemours and Company, priority 1981, dated 1983)

Key:
Experiment in all cases: Test A pre-emergence
Settings in all cases: 0.4 kg/ha
wheat = format: in vivo; parameters: key: 0 = no effect, 10 = maximum effect; letter = response symbol
Method in brief: (§1)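 Seeds and tubers were treated preemergence in a growth medium with compound in a nonphytotoxic solvent, against untreated controls; emerged plants such as two-leaf barnyardgrass and five-leaf cotton were sprayed postemergence, against solvent-sprayed controls. After sixteen days in a greenhouse, response was rated visually from 0 to 10.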

sorghum = format: in vivo; parameters: key: 0 = no effect, 10 = maximum effect; letter = response symbol
Method in brief: as §1

rice = format: in vivo; parameters: key: 0 = no effect, 10 = maximum effect; letter = response symbol
Method in brief: as §1

soybean = format: in vivo; parameters: key: 0 = no effect, 10 = maximum effect; letter = response symbol
Method in brief: as §1

morningglory = format: in vivo, Ipomoea spp.; parameters: key: 0 = no effect, 10 = maximum effect; letter = response symbol
Method in brief: as §1

wild oats = format: in vivo, Avena fatua; parameters: key: 0 = no effect, 10 = maximum effect; letter = response symbol
Method in brief: as §1

cassia = format: in vivo, Cassia tora; parameters: key: 0 = no effect, 10 = maximum effect; letter = response symbol
Method in brief: as §1

crabgrass = format: in vivo, Digitaria spp.; parameters: key: 0 = no effect, 10 = maximum effect; letter = response symbol
Description: (§2) The activity of these compounds was discovered in a number of greenhouse and field tests. The ratings are based on a numerical scale extending from 0=no effect, to 10=maximum effect. The accompanying descriptive symbols have the following meanings:
(§3) Seeds of crabgrass (Digitaria spp.), barnyardgrass (Echinochloa crusgalli), wild oats (Avena fatua), cassia (Cassia tora), morningglory (Ipomoea spp.), cocklebur (Xanthium spp.), sorghum, corn, soybean, rice, wheat and nutsedge tubers (Cyperus rotundus) were planted in a growth medium and treated preemergence with a nonphytotoxic solvent solution of the compounds of Table XII. Other batches of seeds and tubers for all of the foregoing weed and crop plants were planted at the same time as controls. The control plantings were untreated; i.e., neither any compound nor any solvent was applied. At the same time, cotton having five leaves (including cotyledonary ones), bush beans with the third trifoliate leaf expanding, crabgrass with two leaves, barnyardgrass with two leaves, wild oats with two leaves, cassia with three leaves (including cotyledonary ones), morningglory with four leaves (including the cotyledonary ones), cocklebur with four leaves (including the cotyledonary ones), sorghum with four leaves, corn with four leaves, soybean with two cotyledonary leaves, rice with three leaves, wheat with one leaf, and nutsedge with three-five leaves were sprayed with a nonphytotoxic solvent solution of the compounds of Table XII. Other groups of all the same weed and crop plants were sprayed with the same nonphytotoxic solvent so as to provide control plants. Preemergence and postemergence treated plants and controls were maintained in a greenhouse for sixteen days, then all treated plants were compared with their respective controls and rated visually for response to treatment.

cocklebur = format: in vivo, Xanthium spp.; parameters: key: 0 = no effect, 10 = maximum effect; letter = response symbol
Method in brief: as §1

barnyardgrass = format: in vivo, Echinochloa crusgalli; parameters: key: 0 = no effect, 10 = maximum effect; letter = response symbol
Method in brief: as §1

corn = format: in vivo; parameters: key: 0 = no effect, 10 = maximum effect; letter = response symbol
Method in brief: as §1

nutsedge = format: in vivo, Cyperus rotundus
Description: as §2, §3

Row | SMILES | response rating (wheat) | response rating (sorghum) | response rating (rice) | response rating (soybean) | response rating (morningglory) | response rating (wild oats) | response rating (cassia) | response rating (crabgrass) | response rating (cocklebur) | response rating (barnyardgrass) | response rating (corn) | response rating (nutsedge)
1 | COC(=O)c1cc(F)ccc1S(=O)(=O)NC(=O)Nc1nc(C)nc(OC)n1 [drawing 517] | 0 | 9G | 9H | 9H | 9G | 2G | 9G | 5G |  |  |  | 
2 | COC(=O)c1cc(Cl)c(Cl)cc1S(=O)(=O)NC(=O)Nc1nc(C)cc(OC)n1 [drawing 519] | 5G |  | 9H |  | 8G | 4G | 0 | 2G | 8G | 9G |  | 
3 | CCOCCOC(=O)c1ccccc1S(=O)(=O)NC(=O)Nc1nc(Cl)cc(Cl)n1 [drawing 520] | 0 | 8G | 8H | 0 | 3G | 0 | 0 | 2G |  |  | 1C | 
4 | C=CCCC(C)OC(=O)c1ccccc1S(=O)(=O)NC(=O)Nc1nc(C)nc(OC)n1 (stereo not shown) [drawing 522] | 7G | 9H |  | 9H | 9G |  | 9G |  | 9G |  |  | 9G
5 | COc1nc(C)nc(NC(=O)NS(=O)(=O)c2ccccc2C(=O)OC(C)CCl)n1 (stereo not shown) [drawing 526] | 4G | 9H | 9H | 9H | 9G |  | 8G |  | 9G |  | 9G | 
6 | COC(=O)c1cc([N+](=O)[O-])ccc1S(=O)(=O)NC(=O)Nc1nc(C)cc(OC)n1 [drawing 529] | 9G |  | 9H | 9H | 9G |  | 9G |  | 9G |  |  | 
7 | CCCCCCCCCCCCNC(=O)c1ccccc1S(=O)(=O)NC(=O)Nc1nc(C)nc(OC)n1 [drawing 534] | 6G |  | 9H |  | 9G | 6G | 8G |  | 8G | 9H | 8G | 
8 | CCCCCCOC(=O)c1ccccc1S(=O)(=O)NC(=O)Nc1nc(C)cc(COC)n1 [drawing 538] | 0 | 3G | 8H | 0 | 0 | 0 | 0 | 0 | 0 | 2G |  | 
